Source: US20060199849A1, “Solid lercanidipine free base” (Recordati Ireland Limited, priority 2005, published 2006)
Structures can show the parent of a compound that is named as a salt.

Experiment: Comparison of physical properties: solubility in esters, ketones, ethers
Assay type: physicochemical
Conditions: organic solvents: esters
Procedure: The following is a comparative example, comparing substantially pure lercanidipine free base prepared as described in example 1 (a to d) with crude free base prepared by the method of U.S. Pat. No. 4,705,797 and lercanidipine hydrochloride. Crude free base was prepared as described below. Lercanidipine hydrochloride was obtained from Recordati S.p.A., Milan, Italy.

| SMILES | Solubility in esters, ketones, ethers | Solubility in esters, ketones, ethers (hydrochloride) |
| --- | --- | --- |
| COC(=O)C1=C(C)NC(C)=C(C(=O)OC(C)(C)CN(C)CCC(c2ccccc2)c2ccccc2)C1c1cccc([N+](=O)[O-])c1 (centres unmarked) [Crude Free Base, methyl 1,1,N-trimethyl-N-(3,3-diphenylpropyl)-2-aminoethyl 1,4-dihydro-2,6-dimethyl-4-(3-nitrophenyl)pyridine-3,5-dicarboxylate] | Very soluble |  |
| COC(=O)C1=C(C)NC(C)=C(C(=O)OC(C)(C)CN(C)CCC(c2ccccc2)c2ccccc2)C1c1cccc([N+](=O)[O-])c1 (centres unmarked) [Lercanidipine Hydrochloride, lercanidipine hydrochloride] |  | insoluble |
